Measured values taken from patent US12378192B2, “Crystalline form of capsid protein assembly inhibitor containing N hetero five-membered ring, and application thereof” (CHIA TAI TIANQING PHARMACEUTICAL GROUP CO., LTD., priority 2019, dated 2025).

Legend:
[1] = test system: HBV DNA in HepAD38 cells; assay: In-vitro inhibitory activity against HBV DNA in HepAD38 cells; format: cell-based; settings: Hepatitis B virus, 144 h, 6 days treatment, intracellular capsid HBV DNA by qPCR, read-out: EC50 (anti-HBV activity)
Description: (§1) A vial of HepG2.2.15 cells (Wuhan Institute of Virology) or HepAD38 cells in good condition and at logarithmic growth phase was washed once with 5 mL of PBS. 3 mL of pancreatin was added. The cells were digested at room temperature for 5 min, then 2 mL of pancreatin was discarded. The cells were further digested in a cell incubator for 10 min, and observed under a microscope (whether the cells are round in shape, and whether the cells are separated or adhered). 10 mL of complete medium was added to terminate the digestion. The cells was mixed using a pipette to obtain a single cell suspension. 10 μL of the cell suspension was loaded on a cell counter for counting, and diluted with the complete medium to adjust the cell density to 1×10^5 cells/mL. The cells were seeded on a 24-well plate (pre-coated with 50 μg/mL Collagen I solution) at 1 mL/well using a multi-channel pipette and cultured in a thermostatic CO2 incubator for 48 h.
(§2) A solution of the compound dissolved in DMSO was diluted to 10 concentrations in a 2-fold gradient using complete medium. The cells were treated with the compound for 6 days with the media containing the compound refreshed every 72 h. […] HBV DNA in the intracellular viral capsid was measured by real-time fluorescent quantitative PCR. The inhibition rate was calculated according to the Ct value, and the EC50 value was calculated by four-parameter fitting.

[2] = test system: HBV DNA in HepG2.2.15 cells; assay: In-vitro inhibitory activity against HBV DNA in HepG2.2.15 cells; format: cell-based; settings: Hepatitis B virus, 144 h, 6 days treatment, intracellular capsid HBV DNA by qPCR, read-out: EC50 (anti-HBV activity)
Description: as §1, §2

[3] = Plasma protein binding assay (equilibrium dialysis), human plasma; format: in vitro ADME
Description: (§3) Preparation of plasma samples: 5 μL of test compound solution or positive control was added to 495 μL of blank plasma of various species (mouse, rat, dog, monkey and human) to obtain plasma sample solutions at plasma concentrations of 1 μM and 10 μM (in acetonitrile).
(§4) The pretreated dialysis membrane was loaded on a high-throughput equilibrium dialysis system. 100 μL of the plasma sample solution and PBS buffer were added to the two sides (sample side and buffer side) of the dialysis membrane respectively (n=3). The system was sealed with a patch and incubated at 37° C. overnight (100 rpm) to achieve dialysis equilibrium. 50 μL samples were taken from the sample side and the buffer side, and the reaction was terminated with glacial acetonitrile containing an internal standard.
(§5) Sample pretreatment: 450 μL of glacial acetonitrile containing an internal standard was added to 50 μL of the sample from the plasma side for precipitation. The mixture was vortexed for 5 min, and centrifuged (12000 rpm, 4° C.) for 10 min. 75 μL of supernatant was taken and diluted with 75 μL of ultrapure water. After being mixed well, 1 μL of the resulting sample was injected for analysis; 250 μL of glacial acetonitrile containing an internal standard was added to 50 μL of the sample from the PBS side for precipitation. The mixture was vortexed for 5 min, and centrifuged (12000 rpm, 4° C.) for 10 min. […]

[4] = Plasma protein binding assay (equilibrium dialysis), rat plasma; format: in vitro ADME
Description: as §3, §4, §5

[5] = Plasma protein binding assay (equilibrium dialysis), mouse plasma; format: in vitro ADME
Description: as §3, §4, §5

[6] = Plasma protein binding assay (equilibrium dialysis), dog plasma; format: in vitro ADME
Description: as §3, §4, §5

[7] = Plasma protein binding assay (equilibrium dialysis), monkey plasma; format: in vitro ADME
Description: as §3, §4, §5

[8] = format: in vitro ADME
Description: A final incubation system of 300 μL contained 30 μL of liver microsomes (protein concentration: 0.15 mg/mL), 30 μL of NADPH+MgCl2, 3 μL of substrate (in acetonitrile) and 237 μL of PBS. Samples were prepared in duplicate of 0.3 mL for each specie. For each tube, the 270 μL mixed solution of substrates and enzyme and the NADPH solution were separately pre-incubated at 37° C. for 5 min. The 30 μL mixed solution of NADPH+MgCl2 was added for reaction. 50 μL samples were taken at 0 min, 10 min, 30 min and 60 min, and 300 μL of glacial acetonitrile containing an internal standard was added to the samples to terminate the reaction.
Sample pretreatment: 300 μL of glacial acetonitrile containing internal standard diazepam was added to 50 μL of the incubated sample for precipitation. The mixture was vortexed for 5 min, and centrifuged (12000 rpm, 4° C.) for 10 min. 75 μL of supernatant was added to a 96-well plate and diluted with 75 μL of ultrapure water. After being mixed well, 0.5 μL of the resulting sample was injected to a LC-MS/MS system for analysis.

[9] = Pharmacokinetic (PK) study in rats; format: in vivo; settings: SD rats, PO 20 mg/kg
Description: SD rats (B&K Universal, Shanghai) of 180-220 g were randomized into groups of 3 after 3-5 days of acclimatization and administered with the compounds at a dose of 20 mg/kg by oral gavage.
The animals to be tested (SD rats) were fasted for 12 h before administration and fed 4 h after administration, and had free access to water before, after and during the experiment.
After administration, about 0.2 mL of blood was collected from the orbit at 0 min, 15 min, 30 min, 1 h, 2 h, 4 h, 6 h, 8 h, 10 h, 24 h, 30 h and 48 h. After anticoagulation with EDTA-K2, the blood samples were transferred to a centrifuge at 4° C. within 30 min and centrifuged at 4000 rpm for 10 min to separate the plasma. All the plasma samples were collected and immediately stored at −20° C. for testing. 50 μL of the plasma sample to be tested and standard curve sample were taken, and 500 μL of acetonitrile solution containing an internal standard (20 mg/mL diazepam) was added. The reaction system was shaken for 5 min and centrifuged at 12,000 rpm for 10 min. 75 μL of supernatant was taken and diluted with 75 μL of ultrapure water.
After being mixed well, 1 μL of the resulting sample was taken for LC/MS/MS analysis.

[10] = Stability assay of crystalline form (influential factors: high temperature, high humidity, illumination); format: physicochemical; settings: for Stability at high humidity, at high temperature or under illumination (in words): related substance and water over the observation items
Description: The crystalline form I of the compound of formula I prepared in Example 2 and the crystalline form II of the compound of formula I prepared in Example 4, each of 500 mg, were separately placed in dry and clean containers, and evenly spread in thin layers as test samples. The samples were completely exposed to experimental conditions of influential factors (40° C., 60° C., 75% RH, 92.5% RH, high temperature and high humidity (40° C., 75% RH)). Samples were taken for analysis on day 10 and day 30. The samples were completely exposed to illumination (visible light of 1,200,000 Lux·hr, UV of 216 W·hr/m^2) at room temperature.
Chromatographic column: Agilent AdvanceBio Peptide C18 (4.6 mm×150 mm, 3.5 μm).
The water content was measured by a Mettler V20 system.
About 10 mg of the sample was dissolved with an appropriate amount of a mixed diluent of acetonitrile-water (70:30) for content assay of related substance.

[11] = High humidity (92.5% RH), Day 10
[12] = High humidity (92.5% RH), Day 30
[13] = High temperature (40° C.), Day 10
[14] = High temperature (40° C.), Day 30
[15] = High temperature (60° C.), Day 10
[16] = High temperature (60° C.), Day 30
[17] = High temperature and high humidity (40° C., 75% RH), Day 10
[18] = High temperature and high humidity (40° C., 75% RH), Day 30

Row | SMILES | Related substance (total impurities) ([10]; Day 0) | Water ([10]; Day 0) | Related substance (total impurities) ([10]; High humidity (75% RH), Day 10) | Water ([10]; High humidity (75% RH), Day 10) | Related substance (total impurities) ([10]; High humidity (75% RH), Day 30) | Water ([10]; High humidity (75% RH), Day 30) | Related substance (total impurities) [10, 11] | Water [10, 11] | Related substance (total impurities) [10, 12] | Water [10, 12] | Related substance (total impurities) [10, 13] | Water [10, 13] | Related substance (total impurities) [10, 14] | Water [10, 14] | Related substance (total impurities) [10, 15] | Water [10, 15] | Related substance (total impurities) [10, 16] | Water [10, 16] | Related substance (total impurities) [10, 17] | Water [10, 17] | other results
1 | Cc1c(C(=O)Nc2ccc(F)c(C#N)c2)c(C)n(C)c1C(=O)C(=O)N[C@@H](C)C(F)(F)F [Compound of formula I, (S)—N-(3-cyano-4-fluorophenyl)-1,2,4-trimethyl-5-(2-oxo-2-((1,1,1-trifluoropropan-2-yl)amino)acetyl)-1H-pyrrol-3-carboxamide] |  |  |  |  |  |  |  |  |  |  |  |  |  |  |  |  |  |  |  |  | EC50 [1]: ≤ 10 nM; EC50 [2]: ≤ 10 nM; Binding rate, Human ([3]; 1 μM): 94.0%; Binding rate, Human ([3]; 10 μM): 93.7%; Binding rate, Rat ([4]; 1 μM): 82.0%; Binding rate, Rat ([4]; 10 μM): 79.2%; Binding rate, Mouse ([5]; 1 μM): 75.3%; Binding rate, Mouse ([5]; 10 μM): 74.5%; Binding rate, Dog ([6]; 1 μM): 85.9%; Binding rate, Dog ([6]; 10 μM): 85.9%; Binding rate, Monkey ([7]; 1 μM): 90.7%; Binding rate, Monkey ([7]; 10 μM): 90.6%; Residual content after 60 min, Human liver microsome [8]: 78.8%; Residual content after 60 min, Mouse liver microsome [8]: 67.1%; Residual content after 60 min, Rat liver microsome [8]: 65.0%; F [9]: 57%
2 | Cc1c(C(=O)Nc2ccc(F)c(C#N)c2)c(C)n(C)c1C(=O)C(=O)N[C@@H](C)C(F)(F)F [crystalline form I, (S)—N-(3-cyano-4-fluorophenyl)-1,2,4-trimethyl-5-(2-oxo-2-((1,1,1-trifluoropropan-2-yl)amino)acetyl)-1H-pyrrol-3-carboxamide] | 0.55% | 0.27% | 0.72% | 0.19% | 0.66% | 0.20% | 0.69% | 0.21% | 0.66% | 0.26% | 0.66% | 0.18% | 0.63% | 0.19% | 0.66% | 0.20% | 0.60% | 0.18% | 0.64% | 0.17% | Related substance (total impurities) [10, 18]: 0.64%; Water [10, 18]: 0.22%; Related substance (total impurities) ([10]; Illumination, Day 10): 0.63%; Water ([10]; Illumination, Day 10): 0.16%; Stability at high humidity, at high temperature or under illumination (in words) [10]: good stability
3 | Cc1c(C(=O)Nc2ccc(F)c(C#N)c2)c(C)n(C)c1C(=O)C(=O)N[C@@H](C)C(F)(F)F [crystalline form II, (S)—N-(3-cyano-4-fluorophenyl)-1,2,4-trimethyl-5-(2-oxo-2-((1,1,1-trifluoropropan-2-yl)amino)acetyl)-1H-pyrrol-3-carboxamide] | 0.24% | 0.22% | 0.23% | 0.22% | 0.25% | 0.21% | 0.23% | 0.22% | 0.24% | 0.21% | 0.22% | 0.20% | 0.24% | 0.19% | 0.22% | 0.18% | 0.24% | 0.18% | 0.24% | 0.24% | Related substance (total impurities) [10, 18]: 0.24%; Water [10, 18]: 0.21%; Related substance (total impurities) ([10]; Illumination, Day 10): 0.27%; Water ([10]; Illumination, Day 10): 0.22%; Stability at high humidity, at high temperature or under illumination (in words) [10]: good stability
